Data as given in patent US8426408B2, “Pyrimidine inhibitors of kinases” (AbbVie Inc., priority 2009, dated 2013).

How the values were obtained:
Aurora A = molecular target: T1, Aurora A (Homo sapiens, UniProt O14965); assay: Aurora A enzyme inhibition (time-resolved fluorescence, STK substrate-2); assay type: biochemical; details: 1 mM ATP
T1 sequence (O14965 1-403): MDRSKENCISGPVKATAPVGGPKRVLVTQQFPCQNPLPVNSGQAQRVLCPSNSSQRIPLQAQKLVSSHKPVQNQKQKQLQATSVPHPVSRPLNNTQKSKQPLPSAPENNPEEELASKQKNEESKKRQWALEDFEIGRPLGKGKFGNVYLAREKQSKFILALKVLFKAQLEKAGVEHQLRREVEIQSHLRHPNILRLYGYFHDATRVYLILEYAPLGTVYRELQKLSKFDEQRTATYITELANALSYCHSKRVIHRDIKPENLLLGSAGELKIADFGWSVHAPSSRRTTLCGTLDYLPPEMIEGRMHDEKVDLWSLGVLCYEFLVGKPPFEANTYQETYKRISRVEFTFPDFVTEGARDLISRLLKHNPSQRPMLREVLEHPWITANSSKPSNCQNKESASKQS
Summary of the method: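 Phosphorylation of biotinylated STK substrate-2 at 1 mM ATP, 1 h, Hepes buffer pH 7.4 (MgCl2, sodium orthovanadate, Triton X-100). After EDTA quench, 665/615 nm time-resolved fluorescence ratio read via europium anti-phospho antibody and SA-XL665; IC50 from exponential fit versus inhibitor concentration.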

NCI-H1299 cells = assay: Induction of polyploidy in H1299; assay type: cell-based, Human; details: Homo sapiens; NCI-H1299, 48 hours; read-out: EC15 (concentration of inhibitor necessary to induce polyploidy in 15% of cells)
Summary of the method: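 Potency is given as EC15, the inhibitor concentration giving 15% polyploid cells, from log dose-response least-squares analysis. Polyploid cells (nuclear area >750 μ^2, ≥4N) were counted by Hoechst high-content microscopy. H1299 cells had been exposed for 48 h at 37 C in duplicate, then fixed in 3% formalin.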

| Compound | Ki (Aurora A) [nM] | EC15 (NCI-H1299 cells) [µM] |
| --- | --- | --- |
| NC(=O)[C@@H]1[C@H](Nc2nc(Nc3cnn([C@H]4CCOC4)c3)ncc2Cl)[C@H]2C=C[C@@H]1C2 [Example 108, (1S,2S,3R,4R)-3-{[5-chloro-2-({1-[(3S)-tetrahydrofuran-3-yl]-1H-pyrazol-4-yl}amino)pyrimidin-4-yl]amino}bicyclo[2.2.1]hept-5-ene-2-carboxamide] | < 100 | < 0.1 |
| COCCOCCn1cc(Nc2ncc(Br)c(N[C@H]3[C@@H](C(N)=O)[C@@H]4C=C[C@H]3C4)n2)cn1 [Example 110, (1S,2S,3R,4R)-3-{[5-bromo-2-({1-[2-(2-methoxyethoxy)ethyl]-1H-pyrazol-4-yl}amino)pyrimidin-4-yl]amino}bicyclo[2.2.1]hept-5-ene-2-carboxamide] | < 100 | < 0.1 |
| Cn1cc(Nc2ncc(C(F)(F)F)c(Nc3ccccc3C3(O)CCC3)n2)cn1 [Example 115, 1-[2-({2-[(1-methyl-1H-pyrazol-4-yl)amino]-5-(trifluoromethyl)pyrimidin-4-yl}amino)phenyl]cyclobutanol] | < 100 | < 0.1 |
| NC(=O)[C@@H]1[C@H](Nc2nc(Nc3cnn([C@@H]4CCOC4)c3)ncc2Br)[C@H]2C=C[C@@H]1C2 [Example 116, (1S,2S,3R,4R)-3-{[5-bromo-2-({1-[(3R)-tetrahydrofuran-3-yl]-1H-pyrazol-4-yl}amino)pyrimidin-4-yl]amino}bicyclo[2.2.1]hept-5-ene-2-carboxamide] | < 100 | < 0.1 |
| NC(=O)[C@@H]1[C@H](Nc2nc(Nc3cnn([C@H]4CCOC4)c3)ncc2Br)[C@H]2C=C[C@@H]1C2 [Example 117, (1S,2S,3R,4R)-3-{[5-bromo-2-({1-[(3S)-tetrahydrofuran-3-yl]-1H-pyrazol-4-yl}amino)pyrimidin-4-yl]amino}bicyclo[2.2.1]hept-5-ene-2-carboxamide] | < 100 | < 0.1 |
| NC(=O)[C@@H]1[C@H](Nc2nc(Nc3cnn(C4CCC4)c3)ncc2Cl)[C@H]2C=C[C@@H]1C2 [Example 118, (1S,2S,3R,4R)-3-({5-chloro-2-[(1-cyclobutyl-1H-pyrazol-4-yl)amino]pyrimidin-4-yl}amino)bicyclo[2.2.1]hept-5-ene-2-carboxamide] | < 100 | < 0.1 |
| CS(=O)(=O)CCn1cc(Nc2ncc(Cl)c(N[C@H]3[C@@H](C(N)=O)[C@@H]4C=C[C@H]3C4)n2)cn1 [Example 119, (1S,2S,3R,4R)-3-{[5-chloro-2-({1-[2-(methylsulfonyl)ethyl]-1H-pyrazol-4-yl}amino)pyrimidin-4-yl]amino}bicyclo[2.2.1]hept-5-ene-2-carboxamide] | < 100 | < 0.1 |
| NC(=O)[C@@H]1[C@H](Nc2nc(Nc3cnn(C4CCC4)c3)ncc2Br)[C@H]2C=C[C@@H]1C2 [Example 123, (1S,2S,3R,4R)-3-({5-bromo-2-[(1-cyclobutyl-1H-pyrazol-4-yl)amino]pyrimidin-4-yl}amino)bicyclo[2.2.1]hept-5-ene-2-carboxamide] | < 100 | < 0.1 |
| NC(=O)[C@@H]1[C@H](Nc2nc(Nc3cnn(CC4CCO4)c3)ncc2Cl)[C@H]2C=C[C@@H]1C2 (stereo partly drawn) [Example 129, (1S,2S,3R,4R)-3-[(5-chloro-2-{[1-(oxetan-2-ylmethyl)-1H-pyrazol-4-yl]amino}pyrimidin-4-yl)amino]bicyclo[2.2.1]hept-5-ene-2-carboxamide] | < 100 | < 0.1 |
| Cn1cc(Nc2ncc([N+](=O)[O-])c(N[C@H]3[C@@H](C(N)=O)[C@@H]4C=C[C@H]3C4)n2)cn1 [Example 139, (1S,2S,3R,4R)-3-({2-[(1-methyl-1H-pyrazol-4-yl)amino]-5-nitropyrimidin-4-yl}amino)bicyclo[2.2.1]hept-5-ene-2-carboxamide] | < 100 | < 0.1 |
| NC(=O)[C@@H]1[C@H](Nc2nc(Nc3cnn(CCc4ccccc4)c3)ncc2Cl)[C@H]2C=C[C@@H]1C2 [Example 143, (1S,2S,3R,4R)-3-[(5-chloro-2-{[1-(2-phenylethyl)-1H-pyrazol-4-yl]amino}pyrimidin-4-yl)amino]bicyclo[2.2.1]hept-5-ene-2-carboxamide] | < 100 | < 0.1 |

Now from value to molecule, other results behind:

| Ki (Aurora A) [nM] | Compound | EC15 (NCI-H1299 cells) [µM] |
| --- | --- | --- |
| < 100 | COCCn1cc(Nc2ncc(Br)c(N[C@H]3[C@@H](C(N)=O)[C@@H]4C=C[C@H]3C4)n2)cn1 [Example 106, (1S,2S,3R,4R)-3-[(5-bromo-2-{[1-(2-methoxyethyl)-1H-pyrazol-4-yl]amino}pyrimidin-4-yl)amino]bicyclo[2.2.1]hept-5-ene-2-carboxamide] | < 0.1 |
| < 100 | NC(=O)[C@@H]1[C@H](Nc2nc(Nc3cnn([C@@H]4CCOC4)c3)ncc2Cl)[C@H]2C=C[C@@H]1C2 [Example 107, (1S,2S,3R,4R)-3-{[5-chloro-2-({1-[(3R)-tetrahydrofuran-3-yl]-1H-pyrazol-4-yl}amino)pyrimidin-4-yl]amino}bicyclo[2.2.1]hept-5-ene-2-carboxamide] | < 0.1 |
| < 100 | Cn1cc(Nc2ncc(C(F)(F)F)c(Nc3ccccc3C3(O)CNC3)n2)cn1 [Example 109, 3-[2-({2-[(1-methyl-1H-pyrazol-4-yl)amino]-5-(trifluoromethyl)pyrimidin-4-yl}amino)phenyl]azetidin-3-ol] | < 0.1 |
| < 100 | CC(C)CCn1cc(Nc2ncc(Br)c(N[C@H]3[C@@H](C(N)=O)[C@@H]4C=C[C@H]3C4)n2)cn1 [Example 111, (1S,2S,3R,4R)-3-[(5-bromo-2-{[1-(3-methylbutyl)-1H-pyrazol-4-yl]amino}pyrimidin-4-yl)amino]bicyclo[2.2.1]hept-5-ene-2-carboxamide] | < 0.1 |
| < 100 | CC(C)n1cc(Nc2ncc(Br)c(N[C@H]3[C@@H](C(N)=O)[C@@H]4C=C[C@H]3C4)n2)cn1 [Example 112, (1S,2S,3R,4R)-3-({5-bromo-2-[(1-isopropyl-1H-pyrazol-4-yl)amino]pyrimidin-4-yl}amino)bicyclo[2.2.1]hept-5-ene-2-carboxamide] | < 0.1 |
| < 100 | CS(=O)(=O)CCn1cc(Nc2ncc(Br)c(N[C@H]3[C@@H](C(N)=O)[C@@H]4C=C[C@H]3C4)n2)cn1 [Example 122, (1S,2S,3R,4R)-3-{[5-bromo-2-({1-[2-(methylsulfonyl)ethyl]-1H-pyrazol-4-yl}amino)pyrimidin-4-yl]amino}bicyclo[2.2.1]hept-5-ene-2-carboxamide] | < 0.1 |
| < 100 | NC(=O)[C@@H]1[C@H](Nc2nc(Nc3cnn(C[C@H](O)CO)c3)ncc2Cl)[C@H]2C=C[C@@H]1C2 [Example 124, (1S,2S,3R,4R)-3-{[5-chloro-2-({1-[(2S)-2,3-dihydroxypropyl]-1H-pyrazol-4-yl}amino)pyrimidin-4-yl]amino}bicyclo[2.2.1]hept-5-ene-2-carboxamide] | < 0.1 |
| < 100 | NC(=O)[C@@H]1[C@H](Nc2nc(Nc3cnn(C[C@@H](O)CO)c3)ncc2Cl)[C@H]2C=C[C@@H]1C2 [Example 130, (1S,2S,3R,4R)-3-{[5-chloro-2-({1-[(2R)-2,3-dihydroxypropyl]-1H-pyrazol-4-yl}amino)pyrimidin-4-yl]amino}bicyclo[2.2.1]hept-5-ene-2-carboxamide] | < 0.1 |
| < 100 | NC(=O)[C@@H]1[C@H](Nc2nc(Nc3cnn(C[C@H](O)CO)c3)ncc2Br)[C@H]2C=C[C@@H]1C2 [Example 131, (1S,2S,3R,4R)-3-{[5-bromo-2-({1-[(2S)-2,3-dihydroxypropyl]-1H-pyrazol-4-yl}amino)pyrimidin-4-yl]amino}bicyclo[2.2.1]hept-5-ene-2-carboxamide] | < 0.1 |
| < 100 | Cn1cc(Nc2ncc(Br)c(Nc3ccccc3C3(O)CCC3)n2)cn1 [Example 132, 1-[2-({5-bromo-2-[(1-methyl-1H-pyrazol-4-yl)amino]pyrimidin-4-yl}amino)phenyl]cyclobutanol] | 0.1 to 1 |
| < 100 | Cc1nn(C)cc1Nc1ncc(Cl)c(N[C@H]2[C@@H](C(N)=O)[C@@H]3C=C[C@H]2C3)n1 [Example 134, (1S,2S,3R,4R)-3-({5-chloro-2-[(1,3-dimethyl-1H-pyrazol-4-yl)amino]pyrimidin-4-yl}amino)bicyclo[2.2.1]hept-5-ene-2-carboxamide] | < 0.1 |
| < 100 | Cc1nn(C)cc1Nc1ncc(Br)c(N[C@H]2[C@@H](C(N)=O)[C@@H]3C=C[C@H]2C3)n1 [Example 135, (1S,2S,3R,4R)-3-({5-bromo-2-[(1,3-dimethyl-1H-pyrazol-4-yl)amino]pyrimidin-4-yl}amino)bicyclo[2.2.1]hept-5-ene-2-carboxamide] | < 0.1 |
| < 100 | CCn1cc(Nc2ncc([N+](=O)[O-])c(N[C@H]3[C@@H](C(N)=O)[C@@H]4C=C[C@H]3C4)n2)cn1 [Example 140, (1S,2S,3R,4R)-3-({2-[(1-ethyl-1H-pyrazol-4-yl)amino]-5-nitropyrimidin-4-yl}amino)bicyclo[2.2.1]hept-5-ene-2-carboxamide] | < 0.1 |
